Calls of active or inactive are those of the source. No cut-off for these calls is given here.
What was measured:
HCT-116 [1] = assay: Induction of apoptosis in human HCT-116 cells assessed as increase in late apoptotic cells at 0.1 uM preincubated for 24 hrs followed by sonication for 4 mins by annexin V-FITC/PI staining based flow cytometry analysis relative to control; type: functional; details: time 1444 min, 24.07 h
[2] = Biodistribution in MATP knocked out human HCT-116 cells xenografted in BALB/c mouse assessed as fluorescence intensity in spleen at 10 mg/kg, po measured after 24 hrs; type: ADME, organism-based; details: in vivo
[3] = Half-life in ICR mouse at 1 mg/kg, iv measured upto 24 hrs by LC-MS/MS analysis; type: ADME, organism-based; details: in vivo
[4] = molecular target: T1, S-adenosylmethionine synthase isoform type-2 (Homo sapiens, UniProt P31153); assay: Induction of MAT2A degradation in human HCT-116 cells assessed as MAT2A level at 0.1 uM preincubated for 4 hrs followed by 1.0 MHz, 0.8W/cm2 ultrasound treatment for 4 mins and measured upto 24 hrs by Western blotting assay; type: cell-based; details: time <= 1684.0 min
Target sequence in this assay (P31153 whole entry, looked up, canonical isoform): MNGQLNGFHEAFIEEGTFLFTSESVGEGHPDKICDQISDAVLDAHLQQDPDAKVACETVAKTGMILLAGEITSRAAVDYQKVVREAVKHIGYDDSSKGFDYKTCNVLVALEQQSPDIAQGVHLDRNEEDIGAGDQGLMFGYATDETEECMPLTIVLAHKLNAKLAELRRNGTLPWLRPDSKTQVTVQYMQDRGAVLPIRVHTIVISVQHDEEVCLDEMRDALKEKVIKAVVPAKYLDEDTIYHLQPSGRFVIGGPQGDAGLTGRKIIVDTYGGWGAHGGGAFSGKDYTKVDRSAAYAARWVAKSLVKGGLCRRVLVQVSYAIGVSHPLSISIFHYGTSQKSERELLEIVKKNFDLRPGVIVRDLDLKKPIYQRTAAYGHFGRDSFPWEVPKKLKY

HCT-116 [5] = assay: Antitumor activity against […] knocked out human HCT-116 cells xenografted in BALB/c mouse assessed as tumor regression at 10 mg/kg, po administered once a day followed by 4 mins sonication post 6 hrs of compound administration and measured for 3 weeks; type: functional
[6] = Drug localization in human HCT-116 cells cytoplasm assessed as bright red fluorescence at 1 uM by Hoechst 33342 staining based confocal assay; type: ADME, cell-based; details: hct-116, 1 µM
[7] = Toxicity in BALB/c mouse xenografted with human HCT-116 cells assessed as lung damage at 10 mg/kg, po by H and E staining based assay; type: organism-based; details: in vivo
[8] = Cmax in BALB/c mouse at 10 mg/kg, po measured upto 24 hrs by LC-MS/MS analysis; type: ADME, organism-based; details: in vivo
Cytochrome P450 2C9 = Cytochrome P450 2C9 (Homo sapiens, UniProt P11712); assay: Inhibition of CYP2C9 (unknown origin); type: ADME
Cytochrome P450 2C9, sequence (P11712 whole entry): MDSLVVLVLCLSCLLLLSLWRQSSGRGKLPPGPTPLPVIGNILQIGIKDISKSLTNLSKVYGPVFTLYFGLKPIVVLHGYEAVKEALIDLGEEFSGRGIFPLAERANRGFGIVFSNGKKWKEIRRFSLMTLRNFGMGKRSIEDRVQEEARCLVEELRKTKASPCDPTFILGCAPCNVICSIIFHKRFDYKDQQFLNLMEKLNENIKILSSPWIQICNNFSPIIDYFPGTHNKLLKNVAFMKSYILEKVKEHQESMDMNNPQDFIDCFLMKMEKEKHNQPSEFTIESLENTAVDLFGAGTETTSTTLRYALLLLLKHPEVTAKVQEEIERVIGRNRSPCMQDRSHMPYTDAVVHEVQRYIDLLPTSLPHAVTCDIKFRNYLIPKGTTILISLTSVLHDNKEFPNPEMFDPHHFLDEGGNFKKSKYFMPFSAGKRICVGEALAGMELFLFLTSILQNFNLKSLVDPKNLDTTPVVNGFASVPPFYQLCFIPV

[9] = Apparent permeability in MDCKII-MDR1 cells; type: ADME, cell-based, Canis lupus familiaris; details: dog, MDCK-MDR1
[10] = AUC(0 to 24 hrs) in BALB/c mouse at 10 mg/kg, po measured upto 24 hrs by LC-MS/MS analysis; type: ADME, organism-based; details: in vivo
[11] = Biodistribution in […] knocked out human HCT-116 cells xenografted in BALB/c mouse assessed as fluorescence intensity in heart at 10 mg/kg, po measured after 24 hrs; type: ADME, organism-based; details: in vivo
[12] = Toxicity in BALB/c mouse xenografted with human HCT-116 cells assessed as lung damage at 100 mg/kg, po by H and E staining based assay; type: organism-based; details: in vivo
[13] = Tmax in ICR mouse at 10 mg/kg, po measured upto 24 hrs by LC-MS/MS analysis; type: ADME, organism-based; details: in vivo
[14] = Toxicity in BALB/c mouse xenografted with human HCT-116 cells assessed as heart damage at 10 mg/kg, po by H and E staining based assay; type: organism-based; details: in vivo
[15] = Inhibition of uridine glucuronyl transferase (unknown origin); parameters: species or system Homo sapiens
[16] = Oral bioavailability in ICR mouse at 10 mg/kg measured upto 24 hrs by LC-MS/MS analysis; type: ADME, organism-based; details: in vivo
HCT-116 [17] = assay: Antiproliferative activity against MTAP knocked out human HCT-116 cells under 4 mins sonication; type: functional, cell-based; details: HCT-116, 4 min
[18] = molecular target: T1, S-adenosylmethionine synthase isoform type-2; assay: Induction of MAT2A degradation in human HCT-116 cells assessed as degradation maximum at higher than 1 uM preincubated for 4 hrs followed by 1.0 MHz, 0.8W/cm2 ultrasound treatment for 0.5 mins by Western blotting assay relative to control; type: cell-based; details: time 240.5 min
Target sequence in this assay (P31153 whole entry, looked up, canonical isoform): as the sequence (P31153 whole entry, looked up, canonical isoform) above

[19] = Biodistribution in […] knocked out human HCT-116 cells xenografted in BALB/c mouse assessed as fluorescence intensity in kidney at 10 mg/kg, po measured after 24 hrs; type: ADME, organism-based; details: in vivo
[20] = Toxicity in BALB/c mouse xenografted with human HCT-116 cells assessed as kidney damage at 100 mg/kg, po by H and E staining based assay; type: organism-based; details: in vivo
HCT-116 [21] = assay: Antitumor activity against […] knocked out human HCT-116 cells xenografted in BALB/c mouse assessed as tumor growth inhibition at 100 mg/kg, po administered once a day for 6 hrs and measured after 3 weeks; type: functional; details: HCT-116, 504 h, read-out: TGI
HCT-116 [22] = assay: Antiproliferative activity against wild type human HCT-116 cells preincubated with AG-270 followed by compound addition; type: functional, cell-based
[23] = molecular target: T1, S-adenosylmethionine synthase isoform type-2; assay: Induction of MAT2A degradation in human HCT-116 cells assessed as MAT2A level at 0.1 uM preincubated for 4 hrs followed by 1.0 MHz, 0.8W/cm2 ultrasound treatment for 4 mins by Western blotting assay; type: cell-based; details: time 244.0 min
Target sequence in this assay (P31153 whole entry, looked up, canonical isoform): as above

[24] = Toxicity in BALB/c mouse xenografted with human HCT-116 cells assessed as inflammatory cells infiltration at 50 mg/kg, po by H and E staining based assay; type: organism-based; details: in vivo
[25] = Toxicity in BALB/c mouse xenografted with human HCT-116 cells assessed as liver damage at 10 mg/kg, po by H and E staining based assay; type: organism-based; details: in vivo
[26] = Intrinsic clearance in human liver microsomes; type: ADME, Microsome; details: read-out: CLH
[27] = Toxicity in BALB/c mouse xenografted with human HCT-116 cells assessed as spleen damage at 100 mg/kg, po by H and E staining based assay; type: organism-based; details: in vivo
[28] = Tmax in BALB/c mouse at 10 mg/kg, po measured upto 24 hrs by LC-MS/MS analysis; type: ADME, organism-based; details: in vivo
[29] = Toxicity in BALB/c mouse xenografted with human HCT-116 cells assessed as liver tissue rupture at 50 mg/kg, po by H and E staining based assay; type: organism-based; details: in vivo
MDR1 (P-gp) = assay: Efflux ratio of apparent permeability in MDCKII-MDR1 cells; type: ADME, cell-based, Canis lupus familiaris; details: dog, MDCK-MDR1
[30] = molecular target: T1, S-adenosylmethionine synthase isoform type-2; assay: Induction of MAT2A degradation in human HCT-116 cells preincubated for 4 hrs followed by 1.0 MHz, 0.8W/cm2 ultrasound treatment for 0.5 mins by Western blotting assay; type: cell-based
Target sequence in this assay (P31153 whole entry, canonical isoform): as the sequence (P31153 whole entry, looked up, canonical isoform) above

[31] = molecular target: T1, S-adenosylmethionine synthase isoform type-2; assay: Induction of MAT2A degradation in human HCT-116 cells incubated for 4 hrs by Western blotting assay; type: cell-based
Target sequence in this assay (P31153 whole entry, looked up, canonical isoform): as above

[32] = Toxicity in BALB/c mouse xenografted with human HCT-116 cells assessed as body weight loss at 10 mg/kg, po administered once a day followed by 4 mins sonication post 6 hrs of compound administration and measured for 3 weeks; type: organism-based; details: in vivo, 504 h
[33] = Cmax in ICR mouse at 10 mg/kg, po measured upto 24 hrs by LC-MS/MS analysis; type: ADME, organism-based; details: in vivo
HCT-116 [34] = assay: Induction of ROS generation in human HCT-116 cells at 0.001 to 1 uM incubated for 6 hrs by DCFH-DA staining based flow cytometry analysis; type: functional, cell-based; details: dose 0.001-1 µM
[35] = Toxicity in BALB/c mouse xenografted with human HCT-116 cells assessed as change in liver cell nucleus shape at 100 mg/kg, po by H and E staining based assay; type: organism-based; details: in vivo
[36] = Toxicity in BALB/c mouse xenografted with human HCT-116 cells assessed as change in liver cell nucleus size at 100 mg/kg, po by H and E staining based assay; type: organism-based; details: in vivo
HCT-116 [37] = assay: Antiproliferative activity against MTAP knocked out human HCT-116 cells under 1 min sonication; type: functional, cell-based; details: HCT-116, 1 min

Structure (SMILES): CCOc1ncc2cc(-c3ccc4c(c3)N3CCCC3CO4)c(=O)n(-c3ccc(OC(F)F)cc3)c2n1 (centres undefined)
- Activity (HCT-116 [1]): 9%
- Drug uptake [2]: Not Active
- half-life [3]: 1.6 h
- Activity [4]: Active
- Activity (HCT-116 [5]): 31%
- Drug uptake [6]: Active
- Activity [7]: Non-Toxic
- Cmax [8]: 1380 ng/mL
- IC50 (Cytochrome P450 2C9): 31000 nM
- Papp [9]: 13.4 ×10⁻⁶ cm/s
- AUC [10]: 9714 ng·h/mL
- Drug uptake [11]: Not Active
- Activity [12]: Non-Toxic
- Tmax [13]: 0.5 h
- Activity [14]: Non-Toxic
- IC50 [15]: 800 nM
- bioavailability [16]: 77%
- IC50 (HCT-116 [17]): 42 nM
- Emax [18]: 76%
- Drug uptake [19]: Not Active
- Activity [20]: Non-Toxic
- inhibition in vivo at 100 mg/kg (HCT-116 [21]): 96.5%
- Activity (HCT-116 [22]): inactive
- Activity [23]: 13%
- Activity [24]: Toxic
- Activity [25]: Non-Toxic
- CLint scaled [26]: 9.6 mL/min/kg
- Activity [27]: Non-Toxic
- Tmax [28]: 1 h
- Activity [29]: Toxic
- efflux ratio (MDR1 (P-gp)): 0.9
- EC50 [30]: 360 nM
- Activity [31]: inactive
- Activity [32]: Non-Toxic
- Cmax [33]: 1380 ng/mL
- Activity (HCT-116 [34]): Active
- Activity [35]: Toxic
- Activity [36]: Toxic
- IC50 (HCT-116 [37]): 79 nM

Reference: ChEMBL document CHEMBL5532680, “Identification of a Sonically Activated Degrader of Methionine Adenosyltransferase 2A by an in Silico Approach Assisted with the Hole-Electron Analysis” (J Med Chem, 2024)
